Measurements published in US12129312B2, “Peptide compound, application thereof and composition containing same” (priority 2017, dated 2024).
Where two headings read alike, the source gives them in different places. Numbered stars: 1 amine (or outer) side, 2 acyl side, 3 side chain; on linkers, the order of the positions; unused ones are H or OH. Square brackets hold non-standard residues; d marks the D form. Peptide text beside a SMILES is read from it. * marks the point of attachment. Pro(5R-Ph) = O=C(O)[C@@H]1CC[C@H](c2ccccc2)N1; PEG8 = NCCOCCOCCOCCOCCOCCOCCOCCOCCC(=O)O; Pro(4,4-F2) = O=C(O)[C@@H]1CC(F)(F)CN1; X4 = O=C([C@@H]1Cc2ccsc2CN1[*:1])[*:2]; X5 = O=C([C@H]1c2ccccc2CCN1[*:1])[*:2]; 2Nal = N[C@@H](Cc1ccc2ccccc2c1)C(=O)O; X10 = CN(C)[C@H](Cc1ccc(O)cc1)C(=O)*; dNMeY = CN[C@H](Cc1ccc(O)cc1)C(=O)O; Palmitoyl = CCCCCCCCCCCCCCCC(=O)*; Tic = O=C(O)[C@@H]1Cc2ccccc2CN1; NMeL = CN[C@@H](CC(C)C)C(=O)O; NMeS = CN[C@@H](CO)C(=O)O; Thz = O=C(O)[C@@H]1CSCN1; βAla = NCCC(=O)O

Key:
[1] = Plasma stability, mouse plasma; format: in vitro ADME; conditions: 37° C., 0-4 hours, LC-MS/MS, "Very long" = no significant degradation found in the test (4 hours); for Mouse plasma (T1/2 (h)): 500 ng/mL; for half-life at 500 ng/mL: read-out: Mouse plasma (T1/2 (h)) (converted)
Procedure: (§1) 1. Preparation of 50 mM Phosphate Buffer (50 mM Sodium Phosphate and 70 mM NaCl):
(§2) 5.750 g of Na2HPO4, 1.141 g of NaH2PO4 and 4.095 g of NaCl (Shanghai Titan) were weighed and dissolved in 1000 mL of ultrapure water and the pH was adjusted to 7.4. The prepared phosphate buffer was stored in the refrigerator at 4° C., valid for one week.
(§3) 2. Preparation of Compound Stock Solution:
(§4) 1) 5 mg/mL test compound: 5 mg of compound was weighed and dissolved in 1 mL of DMSO.
(§5) 2) 20 mM control: 2.728 mg of nococaine was dissolved in 0.5 mL of DMSO. 3.878 mg of fenfluramide was dissolved in 0.5 mL of DMSO (Amresco).
(§6) 3. Preparation of Experimental Plasma:
(§7) The frozen plasma (human: Shanghai ChemPartner, Rat, Mouse: Shanghai Xipuer-Beikai, Dog, Monkey: Suzhou Xishan Zhongke) was taken out from the −80° C. refrigerator, immediately placed in a 37° C. water bath, and thawn with gentle shaking. The thawed plasma was poured into a centrifuge tube, and centrifuged at 3000 rpm for 8 minutes. The supernatant was collected for the experiment. The pH of the plasma was measured with a pH meter (METTLER TOLEDO), and only the plasma with a pH between 7.4 and 8 was used for the experiment. The plasma was placed on an ice bath for later use.
(§8) 4. Preparation of the Dosing Solution:
(§9) 1) 125 μg/mL test compound solution: 5 μL of 5 mg/mL test compound (see step 2) was added to 195 μL DMSO; 500 μM control solution: 20 mM control stock solution (see step 2) was added to 195 μL DMSO.
(§10) 2) 0.5% BSA phosphate buffer solution: 0.05 g of BSA was added to 10 mL of phosphate buffer (see step 1).
(§11) 3) 5 μg/mL test compound dosing solution: 40 μL of 125 μg/mL test compound solution was added to 960 μL of 0.5% BSA phosphate buffer solution, shaken and mixed evenly, and the dosing solution was placed in a 37° C. water bath and preheated for 5 minutes.
(§12) 20 μM control dosing solution: 40 μL of 500 μM control solution was added to 960 μL of 0.5% BSA phosphate buffer solution, shaken and mixed evenly, and the dosing solution was placed in a 37° C. water bath and preheated for 5 minutes.
(§13) 5. 10 μL of 5 μg/mL test compound and 20 μM control solution were added to the wells of the 96-well plate set at different time points (0 minute, 1 hour, 2 hours and 4 hours). The number of duplicate samples was 3.
(§14) 6. 500 μL of ACN (IS) containing 5% FA was added to the wells set at 0 minute. 90 μL of plasma was then added thereto, mixed evenly, sealed with the film and stored at 4° C. (the number of duplicates was 3).
(§15) 7. 90 μL of plasma was added to the wells set at 1 hour, 2 hours and 4 hours (the number of replicates was 3), followed by timing (the final concentration of the test compound was 500 ng/mL, and that of the control was 2 μM).
(§16) 9. All samples (0 minutes, 1 hour, 2 hours, and 4 hours) at different time points on the 96-well plate were placed on a shaker (IKA, MTS 2/4) and shaken at 600 rpm for 60 minutes. The samples were then centrifuged for 15 minutes on a centrifuge machine (Thermo Multifuge×3R) at 5594×g.
(§17) 10. 150 μL of the supernatant was taken out from the centrifuged sample and sent to LC-MS/MS for analysis (conventional peptide LC-MS/MS analysis).

[2] = target: T1, human Chemokine like receptor 1 (Homo sapiens, UniProt Q99788); test: Activation of Tango CMKLR1-bla U2OS cells (beta-lactamase FRET reporter); format: cell-based
T1 construct: host or cells: U2OS (Tango CMKLR1-bla U2OS)
T1 sequence (Q99788 1-373): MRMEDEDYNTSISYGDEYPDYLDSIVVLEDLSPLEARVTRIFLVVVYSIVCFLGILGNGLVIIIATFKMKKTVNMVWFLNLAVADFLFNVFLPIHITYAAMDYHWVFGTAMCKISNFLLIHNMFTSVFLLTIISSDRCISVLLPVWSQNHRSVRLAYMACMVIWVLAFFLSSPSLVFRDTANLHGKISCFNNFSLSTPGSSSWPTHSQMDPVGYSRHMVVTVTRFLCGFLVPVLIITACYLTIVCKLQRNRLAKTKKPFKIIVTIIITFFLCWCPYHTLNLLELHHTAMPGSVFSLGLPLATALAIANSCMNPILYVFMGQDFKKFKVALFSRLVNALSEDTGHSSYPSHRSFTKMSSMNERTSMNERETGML
Procedure, shortened: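 Agonist mode in Tango CMKLR1-bla U2OS cells, 10000 cells/well seeded overnight, then 10-point 3-fold compound dilutions from 10 mM DMSO stock applied for 4 h at 37 °C, 5% CO2. Beta-lactamase reporter read with CCF4-AM FRET substrate; peptide (D-Tyr)-Phe-Leu-Pro-(D-Ser)-Gln-Phe-(D-Ala)-Tic-Ser served as positive control.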

[3] = Plasma stability, human plasma; format: in vitro ADME; conditions: 37° C., time points 0 minute, 1, 2 and 4 hours, LC-MS/MS, read-out: Human plasma (T1/2 (h)) (converted)
Procedure: as §1, §2, §3, §4, §5, §6, §7, §8, §9, §10, §11, §12, §13, §14, §15, §16, §17

[4] = determination by the method of Effect Embodiment 1, read-out: EC50

| EC50 [2, 4] [nM] | SMILES | also measured |
| --- | --- | --- |
| 0.7 | CCCCCCCCCCCCCCCC(=O)NCCOCCOCCOCCOCCOCCOCCOCCOCCC(=O)NCCC(=O)NCCC(=O)N[C@H](Cc1ccc(O)cc1)C(=O)N[C@@H](Cc1ccccc1)C(=O)N(C)[C@@H](CC(C)C)C(=O)N1CCC[C@H]1C(=O)N[C@H](CO)C(=O)N[C@@H](CCC(N)=O)C(=O)N[C@@H](Cc1ccccc1)C(=O)N[C@H](C)C(=O)N1Cc2ccccc2C[C@H]1C(=O)N[C@@H](CO)C(=O)O [YW-134, Palm-PEG8-βAla-βAla-(D-Tyr)-Phe-(NMe-Leu)-Pro-(D-Ser)-Gln-Phe-(D-Ala)-Tic-Ser-OH] ({Palmitoyl-PEG8-βAla-βAla}-[dY]F[NMeL]P[dS]QF[dA][Tic]S-OH) | half-life at 500 ng/mL [1]: 11.4 h; half-life at 500 ng/mL [3]: 14 h |
| 6.8 | CC(C)C[C@H](NC(=O)[C@H](Cc1ccccc1)NC(=O)[C@H](N)Cc1ccc(O)cc1)C(=O)N1CCC[C@H]1C(=O)N[C@H](CO)C(=O)N[C@@H](CCC(N)=O)C(=O)N[C@@H](Cc1ccccc1)C(=O)N[C@H](C)C(=O)N1Cc2ccccc2C[C@H]1C(=O)N[C@@H](CO)C(N)=O [YW-189, (D-Tyr)-Phe-Leu-Pro-(D-Ser)-Gln-Phe-(D-Ala)-Tic-Ser-NH2] (H-[dY]FLP[dS]QF[dA][Tic]S-NH2; N-terminus assumed) |  |
| 1.2 | CC(C)C[C@@H](C(=O)N1CC(F)(F)C[C@H]1C(=O)N[C@H](CO)C(=O)N[C@@H](CCC(N)=O)C(=O)N[C@@H](Cc1ccccc1)C(=O)N[C@H](C)C(=O)N1Cc2ccccc2C[C@H]1C(=O)N[C@@H](CO)C(=O)O)N(C)C(=O)[C@H](Cc1ccccc1)NC(=O)[C@H](N)Cc1ccc(O)cc1 [YW-174, (D-Tyr)-Phe-(NMe-Leu)-Pro(diF)-(D-Ser)-Gln-Phe-(D-Ala)-Tic-Ser-OH] (H-[dY]F[NMeL][Pro(4,4-F2)][dS]QF[dA][Tic]S-OH) |  |
| 65 | CC(C)C[C@H](NC(=O)[C@H](Cc1ccccc1)NC(=O)[C@H](N)Cc1ccc(O)cc1)C(=O)N1CCC[C@H]1C(=O)N[C@H](CO)C(=O)N[C@@H](CCC(N)=O)C(=O)N[C@@H](Cc1ccccc1)C(=O)N[C@H](C)C(=O)N1Cc2sccc2C[C@H]1C(=O)N[C@@H](CO)C(=O)O [YW-158, (D-Tyr)-Phe-Leu-Pro-(D-Ser)-Gln-Phe-(D-Ala)-TP5C-Ser-OH] (H-[dY]FLP[dS]QF[dA][X4]S-OH; N-terminus assumed) |  |
| 27 | CC(C)C[C@H](NC(=O)[C@H](Cc1ccccc1)NC(=O)[C@H](N)Cc1ccc(O)cc1)C(=O)N1CCC[C@H]1C(=O)N[C@H](CO)C(=O)N[C@@H](CCC(N)=O)C(=O)N[C@@H](Cc1ccccc1)C(=O)N[C@H](C)C(=O)N1CCc2ccccc2[C@@H]1C(=O)N[C@@H](CO)C(=O)O [YW-151, (D-Tyr)-Phe-Leu-Pro-(D-Ser)-Gln-Phe-(D-Ala)-D-Ti1c-Ser-OH] (H-[dY]FLP[dS]QF[dA][X5]S-OH) |  |
| 2.6 | CC(C)C[C@@H](C(=O)N1CCC[C@H]1C(=O)N[C@H](CO)C(=O)N[C@@H](CCC(N)=O)C(=O)N[C@@H](Cc1ccccc1)C(=O)N[C@H](C)C(=O)N1Cc2ccccc2C[C@H]1C(=O)N[C@@H](CO)C(=O)O)N(C)C(=O)[C@H](Cc1ccccc1)NC(=O)[C@@H](Cc1ccc(O)cc1)N(C)C [YW-192, DiMe-(D-Tyr)-Phe-(NMe-Leu)-Pro-(D-Ser)-Gln-Phe-(D-Ala)-Tic-Ser] (X10-F[NMeL]P[dS]QF[dA][Tic]S-OH) |  |

Second part, the molecule before the results:

| SMILES | EC50 [2, 4] [nM] | also measured |
| --- | --- | --- |
| CN[C@H](Cc1ccc(O)cc1)C(=O)N[C@@H](Cc1ccccc1)C(=O)N(C)[C@@H](CC(C)C)C(=O)N1CSC[C@H]1C(=O)N[C@H](CO)C(=O)N[C@@H](CCC(N)=O)C(=O)N[C@@H](Cc1ccc2ccccc2c1)C(=O)N[C@H](C)C(=O)N1Cc2ccccc2C[C@H]1C(=O)N(C)[C@@H](CO)C(=O)O [YW-125, (D-NMe-Tyr)-Phe-(NMe-Leu)-Thz-(D-Ser)-Gln-2Nal-(D-Ala)-Tic-(NMe-Ser)-OH] (H-[dNMeY]F[NMeL][Thz][dS]Q[2Nal][dA][Tic][NMeS]-OH; N-terminus assumed) | 0.6 | Mouse plasma (T1/2 (h)) [1]: Very long |
| CC(C)C[C@@H](C(=O)N1CSC[C@H]1C(=O)N[C@H](CO)C(=O)N[C@@H](CCC(N)=O)C(=O)N[C@@H](Cc1ccc2ccccc2c1)C(=O)N[C@H](C)C(=O)N1Cc2ccccc2C[C@H]1C(=O)N[C@@H](CO)C(=O)O)N(C)C(=O)[C@H](Cc1ccccc1)NC(=O)[C@H](N)Cc1ccc(O)cc1 [YW-122, (D-Tyr)-Phe-(NMe-Leu)-Thz-(D-Ser)-Gln-2Nal-(D-Ala)-Tic-Ser-OH] (H-[dY]F[NMeL][Thz][dS]Q[2Nal][dA][Tic]S-OH) |  | Mouse plasma (T1/2 (h)) [1]: Very long; EC50 [2]: 0.6 nM; half-life at 500 ng/mL [3]: 79.6 h |
| CCCCCCCCCCCCCCCC(=O)NCCOCCOCCOCCOCCOCCOCCOCCOCCC(=O)NCC(=O)NCC(=O)N[C@H](Cc1ccc(O)cc1)C(=O)N[C@@H](Cc1ccccc1)C(=O)N(C)[C@@H](CC(C)C)C(=O)N1CCC[C@H]1C(=O)N[C@H](CO)C(=O)N[C@@H](CCC(N)=O)C(=O)N[C@@H](Cc1ccccc1)C(=O)N[C@H](C)C(=O)N1Cc2ccccc2C[C@H]1C(=O)N[C@@H](CO)C(=O)O [YW-133, Palm-PEG8-Gly-Gly-(D-Tyr)-Phe-(NMe-Leu)-Pro-(D-Ser)-Gln-Phe-(D-Ala)-Tic-Ser-OH] ({Palmitoyl-PEG8}-GG[dY]F[NMeL]P[dS]QF[dA][Tic]S-OH) | 0.7 | half-life at 500 ng/mL [1]: 67.1 h; half-life at 500 ng/mL [3]: 13.7 h |
| CC(C)C[C@H](NC(=O)[C@H](Cc1ccccc1)NC(=O)[C@H](N)Cc1ccc(O)cc1)C(=O)N1CSC[C@H]1C(=O)N[C@H](CO)C(=O)N[C@@H](CCC(N)=O)C(=O)N[C@@H](Cc1ccccc1)C(=O)N[C@H](C)C(=O)N1Cc2ccccc2C[C@H]1C(=O)N[C@@H](CO)C(=O)O [YW-114, (D-Tyr)-Phe-Leu-Thz-(D-Ser)-Gln-Phe-(D-Ala)-Tic-Ser-OH] (H-[dY]FL[Thz][dS]QF[dA][Tic]S-OH) | 5 |  |
| CC(C)C[C@H](NC(=O)[C@H](Cc1ccccc1)NC(=O)[C@H](N)Cc1ccc(O)cc1)C(=O)N1[C@@H](c2ccccc2)CC[C@H]1C(=O)N[C@H](CO)C(=O)N[C@@H](CCC(N)=O)C(=O)N[C@@H](Cc1ccccc1)C(=O)N[C@H](C)C(=O)N1Cc2ccccc2C[C@H]1C(=O)N[C@@H](CO)C(=O)O [YW-112, (D-Tyr)-Phe-Leu-Pro(5Ph)-(D-Ser)-Gln-Phe-(D-Ala)-Tic-Ser-OH] (H-[dY]FL[Pro(5R-Ph)][dS]QF[dA][Tic]S-OH) | 170 |  |
